The results in this text go back to ChEMBL document CHEMBL1201862, “PubChem BioAssay data set” (2004).

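Compound exposure: 48 hours, 5 concentrations, 96-well plates. Here, GI50 denotes the concentration required for 50% inhibition of growth.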 The source made the active and inactive calls. Rule as the data show it: active = GI50 up to about 1.1 µM and inactive = higher.

Test systems include 786-0; COLO 205; DU-145; HCT-15; HOP-62; HOP-92; Hs-578T; KM12; MDA-N; NCI-H226; NCI-H522; RXF 393; SF-295; SK-MEL-28; SK-MEL-2; SN12C; U-251; MCF7.
Holding throughout (test): NCI anticancer screen, dose series, 48 h

Consider `CN(C)c1ccc(NN=C2SC(=N\c3ccccc3)/C(=N/c3ccccc3)S2)cc1`, for which the GI50 is > 100 µM (inactive) in the assay on 786-0; 37.4 µM (inactive) with COLO 205; > 100 µM (inactive) in the assay on DU-145; 9.31 µM in the assay with HCT-15; > 100 µM (inactive) with HOP-62; 22.8 µM (inactive) in the assay on HOP-92. Further, the GI50 with Hs-578T is 57.4 µM (inactive); in the assay on KM12, 18.2 µM (inactive); in the assay on MDA-N, 20.3 µM (inactive); in the assay with NCI-H226 it was > 100 µM (inactive); with NCI-H522, 6.03 µM (inactive); in the assay with RXF 393 it was 10 µM (inactive). Besides, the GI50 was > 100 µM (inactive) with SF-295; > 100 µM (inactive) with SK-MEL-28; 13.6 µM (inactive) with SK-MEL-2; 43.4 µM (inactive) in the assay with SN12C; > 100 µM (inactive) in the assay on U-251.
`COc1ccc(OC)c(/N=C/c2cc(OC)c(OC)c(OC)c2)c1`: the GI50 is > 95.7 µM (inactive) in the assay on 786-0; > 100 µM (inactive) with COLO 205; > 100 µM (inactive) in the assay on DU-145; > 92.7 µM with HCT-15; > 100 µM (inactive) with HOP-62; > 100 µM (inactive) in the assay with Hs-578T. The GI50 in the assay with KM12 is > 80 µM (inactive); in the assay with MCF7 it was 62.4 µM (inactive); with MDA-N, 40.1 µM (inactive); in the assay with NCI-H226, > 50.2 µM (inactive); in the assay on NCI-H522 it was 22.9 µM (inactive); in the assay on RXF 393 it was > 100 µM (inactive). Moreover, the GI50 is > 100 µM (inactive) with SF-295; > 89.1 µM (inactive) with SK-MEL-28; > 100 µM (inactive) in the assay with SK-MEL-2; > 100 µM (inactive) with SN12C; > 100 µM (inactive) in the assay with U-251.
As for `Cc1cc2c3c([nH]c2c2ccnc(C)c12)CCCC3`, the GI50 with 786-0 is 1.68 µM (inactive); in the assay with COLO 205, 1.69 µM (inactive); in the assay on DU-145, 3.23 µM (inactive); in the assay with HCT-15, 1.86 µM; in the assay with HOP-62, 1.79 µM (inactive); with HOP-92 it was 2.6 µM (inactive). Moreover, the GI50 is 1.92 µM (inactive) in the assay on Hs-578T; 2.7 µM (inactive) in the assay on KM12; 1.43 µM (inactive) in the assay on MCF7; 1.78 µM (inactive) in the assay on MDA-N; 12.1 µM (inactive) in the assay with NCI-H226; 2.12 µM (inactive) with SF-295. Further, the GI50 with SK-MEL-28 was 1.76 µM (inactive); in the assay with SK-MEL-2, 1.62 µM (inactive); with SN12C it was 1.77 µM (inactive); in the assay with U-251, 1.88 µM (inactive).
Regarding `Cc1cc(C)nc(NS(=O)(=O)c2ccc(Nc3nncc(=O)n3N)cc2)n1`, the GI50 is 15.8 µM (inactive) with 786-0; 35.4 µM (inactive) with COLO 205; 34.3 µM (inactive) in the assay on DU-145; 14.5 µM in the assay on HCT-15; 18.7 µM (inactive) in the assay on HOP-62; 29.6 µM (inactive) in the assay on Hs-578T. Besides, the GI50 was 36.2 µM (inactive) in the assay with KM12; 16.7 µM (inactive) with MCF7; 16 µM (inactive) in the assay with MDA-N; 12.8 µM (inactive) with NCI-H522; 31.6 µM (inactive) in the assay on SF-295; 26.5 µM (inactive) in the assay with SK-MEL-28. The GI50 is 59 µM (inactive) with SK-MEL-2 and 17.7 µM (inactive) with U-251.
As to `C=C(CO)[C@H]1Oc2ccc(C(C)=O)cc2[C@@H]1O`, the GI50 in the assay with 786-0 was > 100 µM (inactive); in the assay on COLO 205, > 100 µM (inactive); in the assay with DU-145 it was > 100 µM (inactive); in the assay with HCT-15, 80.9 µM; in the assay with HOP-62, > 100 µM (inactive); with Hs-578T it was 77.8 µM (inactive). The GI50 was > 100 µM (inactive) in the assay on KM12; > 100 µM (inactive) with MCF7; 22.2 µM (inactive) in the assay with MDA-N; > 100 µM (inactive) with NCI-H226; 88.7 µM (inactive) in the assay with NCI-H522; > 100 µM (inactive) with RXF 393. The GI50 in the assay with SF-295, in the assay with SK-MEL-28, in the assay on SK-MEL-2, in the assay on SN12C and in the assay with U-251 was > 100 µM (inactive) each time.
Take `COc1ccc2c(c1)N=C1CSC(c3cccc(Br)c3)N1C2` (stereo not drawn): the GI50 in the assay on 786-0 is 17.4 µM (inactive); with COLO 205, 17.4 µM (inactive); in the assay with HCT-15, 6.14 µM; with HOP-62, 22.8 µM (inactive); with HOP-92, 16.7 µM (inactive); with Hs-578T, 26.3 µM (inactive). The GI50 in the assay on KM12 is 10.9 µM (inactive); with MCF7, 6.59 µM (inactive); in the assay on MDA-N it was 11.5 µM (inactive); with NCI-H226, 22.9 µM (inactive); in the assay on NCI-H522, 14.4 µM (inactive); in the assay with RXF 393, 14.6 µM (inactive). For the same compound, the GI50 in the assay on SF-295 was 14.2 µM (inactive); with SK-MEL-28, 32.8 µM (inactive); in the assay with SK-MEL-2, 17.6 µM (inactive); with SN12C it was 19.5 µM (inactive); in the assay on U-251, 17.5 µM (inactive).
Consider `C=CCOC(=O)C[C@H](NC(=O)[C@H](Cc1ccc(O)cc1)NCC(F)(F)F)C(=O)OCC=C`, for which the GI50 with 786-0 is > 100 µM (inactive); in the assay on COLO 205 it was 31.8 µM (inactive); in the assay with HCT-15, > 100 µM; with HOP-62, > 100 µM (inactive); in the assay with HOP-92 it was > 100 µM (inactive); with Hs-578T, 41.7 µM (inactive). The GI50 was > 100 µM (inactive) in the assay with KM12; 53.8 µM (inactive) in the assay on MCF7; 35.3 µM (inactive) in the assay with MDA-N; > 100 µM (inactive) with NCI-H226; 25 µM (inactive) in the assay with NCI-H522; > 100 µM (inactive) in the assay with RXF 393. Moreover, the GI50 was > 100 µM (inactive) in the assay on SF-295; 20.6 µM (inactive) with SK-MEL-28; 21.3 µM (inactive) in the assay on SK-MEL-2; 45 µM (inactive) with SN12C; > 100 µM (inactive) with U-251.
With `Cc1c(C#N)c(N)n(C2OCC(O)C(O)C2O)c(=S)c1C#N` (stereo not drawn), the GI50 was > 100 µM (inactive) with 786-0; > 100 µM (inactive) in the assay on DU-145; > 100 µM in the assay with HCT-15; > 100 µM (inactive) with HOP-62; 24.5 µM (inactive) with Hs-578T; > 100 µM (inactive) in the assay with KM12. Besides, the GI50 with MCF7, in the assay with MDA-N, in the assay with NCI-H226, in the assay with NCI-H522, with RXF 393 and in the assay with SF-295 was > 100 µM (inactive) throughout. In addition, the GI50 was > 100 µM (inactive) in the assay with SK-MEL-28, 21.4 µM (inactive) in the assay on SK-MEL-2 and > 100 µM (inactive) with SN12C.
Turning to `C/C(=N\Nc1nc2ccccc2[nH]1)c1ncccn1`, the GI50 in the assay with 786-0 is 0.0238 µM (active); in the assay with COLO 205 it was < 0.0197 µM (active); with HCT-15, 0.0302 µM; in the assay with HOP-62, 1.64 µM (inactive); with HOP-92, 0.0552 µM (active); in the assay with Hs-578T, 12.1 µM (inactive). Also, the GI50 in the assay on KM12 was 0.136 µM (active); in the assay on MCF7, 0.0321 µM (active); in the assay with MDA-N, 0.388 µM (active); in the assay on NCI-H226 it was 0.0422 µM (active); in the assay with NCI-H522 it was < 0.0164 µM (active); in the assay with RXF 393, 0.0771 µM (active). Further, the GI50 with SF-295 was 0.0453 µM (active); in the assay with SK-MEL-28, 0.0948 µM (active); in the assay on SK-MEL-2, 2.01 µM (inactive); in the assay on SN12C, 0.0715 µM (active); in the assay on U-251, 0.0462 µM (active).
On to `CC(=O)OC1CC[C@@]2(C)C(C1)CC(OC(C)=O)[C@@H]1C2CC(OC(C)=O)[C@]2(C)C(C(C)CC=C(c3ccc(Cl)cc3)c3ccc(Cl)cc3)CCC12` (stereo partly drawn), for which the GI50 is > 100 µM (inactive) in the assay with 786-0; > 100 µM (inactive) in the assay on COLO 205; 38.1 µM in the assay with HCT-15; 94.4 µM (inactive) in the assay on HOP-62; 25.9 µM (inactive) in the assay with Hs-578T; 64 µM (inactive) in the assay with KM12. Also, the GI50 in the assay with MCF7 was 38.8 µM (inactive); with MDA-N, > 100 µM (inactive); in the assay with NCI-H522, 21.8 µM (inactive); in the assay on SF-295, 52.1 µM (inactive); with SK-MEL-28 it was > 100 µM (inactive); in the assay with SN12C it was > 100 µM (inactive). In the assay on U-251, the GI50 is 60.5 µM (inactive).
As for `COc1ccc2c(c1O)-c1c(OC)c(OC)cc3c1[C@H](C2)[N+](C)(C)CC3`, the GI50 is > 100 µM (inactive) in the assay with 786-0; > 100 µM (inactive) in the assay with COLO 205; > 100 µM (inactive) with DU-145; > 100 µM in the assay on HCT-15; 13.2 µM (inactive) with HOP-92; > 100 µM (inactive) in the assay with Hs-578T. For the same compound, the GI50 with KM12, in the assay with MCF7, with MDA-N, in the assay on NCI-H226, in the assay on NCI-H522 and with SF-295 was > 100 µM (inactive) each time. Also, the GI50 with SK-MEL-28, in the assay with SK-MEL-2, in the assay on SN12C and with U-251 was > 100 µM (inactive) each time.
For `Nc1nc(O)c(Br)c(-c2cccc([N+](=O)[O-])c2)n1`, the GI50 in the assay on 786-0 was > 100 µM (inactive); with COLO 205 it was > 100 µM (inactive); in the assay on DU-145, > 100 µM (inactive); in the assay on HCT-15, > 100 µM; in the assay with HOP-62, > 100 µM (inactive); in the assay on HOP-92, > 76 µM (inactive). Moreover, the GI50 in the assay with Hs-578T was > 100 µM (inactive); with KM12, > 100 µM (inactive); with MCF7, > 49.2 µM (inactive); in the assay on NCI-H226, 49.9 µM (inactive); in the assay on NCI-H522 it was 26.4 µM (inactive); in the assay on RXF 393 it was > 100 µM (inactive). Also, the GI50 was > 50.4 µM (inactive) in the assay with SF-295; > 100 µM (inactive) with SK-MEL-28; > 100 µM (inactive) in the assay with SK-MEL-2; > 100 µM (inactive) in the assay on SN12C; > 100 µM (inactive) in the assay with U-251.
